Assays:
Format in all cases: cell-based, human
[1] = tested on: hMSCs; assay: Protein synthesis assay in undifferentiated hMSCs; details: for citrate-mediated protein synthesis in presence of inhibitor: GM, with citrate
Protocol: Upon 24 and 96 hours incubation, protein synthesis was measured by labeling the intracellular translating proteins with clickable probes (Protein Synthesis Assay kit, Cayman Chemical, Ann Arbor, Mich.).

[2] = tested on: hMSCs; assay: ALP production / osteogenic markers of hMSCs with soluble citrate, PSer or inhibitor (PNPP assay, western blot)
Source text: (§1) hMSCs with passage ≤6 were used in the present differentiation study. […] For osteo-phenotype progression assessment, cells were lysed, and alkaline phosphatase (ALP) production was quantified by using p-nitrophenyl phosphate (PNPP) as its substrate. Alizarin Red was used to stain the calcium nodules formed by the differentiating cells, and the calcium content in the nodules was quantified by Calcium Assay Kit (Sigma-Aldrich, St. Louis, Mo.) and normalized to protein amount as determined by BCA protein assay kit (Thermo Scientific™, Waltham, Mass.). Expression of osteogenic master transcription factor Runx2 was examined by real-time PCR and by using a Runx2 ELISA kit (American Research Products, Inc.™, Waltham, Mass.) according to manufacturer's instructions. Moreover, the expression of bone matrix proteins Collagen type I and osteopontin (OPN) were evaluated with real-time PCR, while OPN expression were also observed by immunofluorescent staining. Western blot was performed to evaluate the expression of ALP, OPN and SLC13a5 before or after differentiating for predetermined time periods.
For ALP expression analysis, cell samples were lysed using RIPA buffer, and the cell lysate was centrifuged to remove debris. Then ALP activity measurement was performed by utilizing p-nitrophenyl phosphate (PNPP) which is hydrolyzed by ALP into a yellow colored product. Briefly, the PNPP stock solution (IM) was diluted with ALP assay buffer at a ratio of 1:100, 50 μL of which was subsequently added to 50 μL of lysate sample. After 10-30 min of incubation at 37° C., the plates were measured at 405 nm on a plate reader (TECAN, Männedorf, Switzerland). The same cell lysate solutions were used to determine DNA amount via a PicoGreen dsDNA quantification kit (Invitrogen, Carlsbad, Calif.) according to the manufacturer's instructions.
After protein quantification by BCA assay, gel electrophoresis was carried out on AnykD™ Mini-Protean TGX stain-free Protein gels at 50 V for 10 min, followed by 250 V for 10-20 min, and was transferred to PVDF membranes with the Trans-Blot Turbo™ system. […]

[3] = tested on: hMSCs; assay: Intracellular ATP determination in hMSCs
[4] = tested on: hMSCs; assay: Oxygen consumption rate (OCR) study in hMSCs
[5] = tested on: hMSCs; assay: hMSC proliferation with citrate (CCK-8); details: citrate 0 to 2000 μM, pH 7.4, in growth medium (GM)
Source text: as §1
Human mesenchymal stem cells (hMSCs; Lonza) were cultured in low glucose Dulbecco's Modified Eagle Medium (DMEM) with 10 vol. % fetal bovine serum (FBS) (Atlanta Biologicals; Flowery Branch, Ga.) and GlutaMAX (Gibco Laboratories, Gaithersburg, Md.). […]

[6] = tested on: hMSCs; assay: Alizarin Red staining and calcium quantification of hMSCs; details: citrate in growth medium (GM)
Protocol: hMSCs with passage ≤6 were used in the present differentiation study. […] Alizarin Red was used to stain the calcium nodules formed by the differentiating cells, and the calcium content in the nodules was quantified by Calcium Assay Kit (Sigma-Aldrich, St. Louis, Mo.) and normalized to protein amount as determined by BCA protein assay kit (Thermo Scientific™, Waltham, Mass.).
For Alizarin Red staining, cell samples were fixed with 4% paraformaldehyde, and 40 mM Alizarin red solutions were used to stain calcium nodules for 30 min with gentle shaking. After thoroughly washing, the stained cells were observed on a Microscope (Nikon, Tokyo, Japan). For calcium quantification, cell samples were washed with PBS and decalcified in 0.6 N HCl for 12 h with gentle shaking. Calcium content in the supernatants was determined colorimetrically by using the Calcium assay kit (Sigma-Aldrich, St. Louis, Mo.), while protein content in cell lysate solutions (lysed with RIPA buffer) was determined using the Pierce BCA protein assay kit (Thermo Scientific™, Waltham, Mass.) according to manufacturer's instructions.

[7] = tested on: hMSCs; assay: Real-time PCR of osteogenic genes in differentiating hMSCs; details: 200 μM citrate vs OG control, 7 and 14 days
Source text: as §1
Total RNA from whole cells was isolated with QIAGEN RNeasy kit (Hilden, Germany) and was transcribed into cDNA using High-Capacity cDNA Reverse Transcription Kits (Applied Biosystems™, Foster City, Calif.). For quantitative analysis, real-time PCR was performed using cDNA as the template, together with TaqMan Gene Expression Master Mix and the TaqMan Gene Expression Assays with both primers and probe included (Applied Biosystems™, Foster City, Calif.), and using the ABI 7900HT Fast Real-Time PCR system (Applied Biosystems™, Foster City, Calif.) according to manufacturer's instructions. Human PPIA (Cyclophilin A) was used for normalization. The primers and TaqMan probe for human Runx2, CoL1A1, SPP1 and PPIA were Hs00231692_ml, Hs00164004_ml, Hs00959010_ml, and Hs99999904_ml, respectively.

[8] = tested on: hMSCs; assay: Runx2 ELISA in hMSCs; details: citrate treatment in OG, as early as day 4
Source text: as §1

[9] = tested on: hMSCs; assay: Citrate assay, intracellular citrate in hMSCs; details: 24 h incubation with citrate supplemented medium
[10] = tested on: hMSCs; assay: Extracellular acidification rate (ECAR) / glycolysis and lactate production in hMSCs; details: undifferentiated hMSCs, 24 h citrate treatment in GM
[11] = differentiating hMSCs in OG, vs OG medium control
[12] = undifferentiated hMSCs, 24 h citrate treatment in GM

**Q.** For `C[C@@H]1C[C@@H]([C@H](O)CC2CC(=O)NC(=O)C2)C(=O)[C@@H](C)C1` [Cycloheximide], which “citrate-mediated protein synthesis in presence of inhibitor” value [1] is on record?
**A.** Its value is “abolished this activity”.

**Q.** How did the “citrate-induced elevation of ALP production with SLC13a5 inhibitor” value ([2]; 14 days in OG, citrate plus inhibitor) turn out when `COc1ncc(C)cc1CC[C@@](O)(CC(=O)O)C(=O)O` [PF06761281, reference compound] was run?
**A.** Its value is “negated the citrate-induced elevation of ALP production”.

**Q.** What about the “citrate effect on metabolic flux to elevate intracellular ATP levels, with SLC13a5 inhibitor” value ([3]; undifferentiated hMSCs, citrate plus inhibitor) of the same compound?
**A.** Its value is “could be abolished”.

**Q.** What about the “citrate-increased mitochondrial respiration with SLC13a5 inhibitor” value ([4]; hMSCs differentiated for 14 days, 1 day treatment in OG) of the same compound?
**A.** Its value is “likewise abolished”.

**Q.** Which results are given for `N[C@@H](COP(=O)(O)O)C(=O)O` [PSer, Phosphoserine]?
**A.** citrate-promoted osteo-phenotype progression (ALP production) ([2]; 40 μM PSer with citrate in OG, 21 days): substantially enhanced; ALP production ([2]; higher PSer dosages (up to 1000 μM) with citrate in OG, 21 days): further elevation of ALP production; intracellular ATP [3, 11]: showed no difference from the OG medium control; intracellular ATP levels ([3]; undifferentiated hMSCs, addition of PSer with or without citrate treatment): no significant effect

**Q.** For `CCC(=O)N1CCN(c2ccc(-n3c(=O)ccc4cnc5ccc(-c6cnc7ccccc7c6)cc5c43)cc2C(F)(F)F)CC1` [Torin1], which “citrate-mediated protein synthesis in presence of inhibitor” value [1] is on record?
**A.** Its value is “abolished this activity”.

**Q.** How did the hMSCs proliferation [5] turn out when `O=C(O)CC(O)(CC(=O)O)C(=O)O` [citrate] was run?
**A.** Its hMSCs proliferation is “little increase”.

**Q.** What about the “calcium deposition by Alizarin Red staining” value [6] of the same compound?
**A.** Its value is “absence of calcium deposition”.

**Q.** What about the “expression of Col1a1 (real-time PCR)” value [7] of the same compound?
**A.** The value was “remarkably elevated expression”.

**Q.** What about the “expression of Runx2 (real-time PCR)” value [7] of the same compound?
**A.** Its value is “remarkably elevated expression”.

**Q.** And the “expression of SPP1 (real-time PCR)” value [7]?
**A.** The value was “remarkably elevated expression”.

**Q.** And the “Runx2 protein (ELISA)” value [8]?
**A.** Its value is “favorable accumulation”.

**Q.** What about the protein synthesis ([1]; 200 μM citrate in GM, 24 h and 96 h, vs control without citrate) of the same compound?
**A.** Its protein synthesis is “increased significantly”.

**Q.** What about the intracellular citrate [9] of the same compound?
**A.** The intracellular citrate was “marked increase”.

**Q.** What about the “intracellular ATP” value [3, 11] of the same compound?
**A.** Its value is “showed no difference from the OG medium control”.

**Q.** And the “intracellular ATP” value ([3]; hMSCs differentiated for 14 days, citrate in OG for 1 or 4 days)?
**A.** Its value is “significant effects on intracellular ATP only after 4 days of treatment”.

**Q.** And the “intracellular ATP levels” value [3, 12]?
**A.** Its value is “elevated intracellular ATP levels”.

**Q.** What about the “mitochondrial respiration (OCR)” value ([4]; hMSCs differentiated for 14 days, 1 day citrate treatment in OG) of the same compound?
**A.** The value was “markedly increased”.

**Q.** And the “oxygen consumption rate (OCR)” value [4, 12]?
**A.** The value was “increased oxygen consumption rate”.

**Q.** What about the “glycolytic flux (ECAR)” value [10] of the same compound?
**A.** Its value is “decrease in glycolytic flux”.

**Q.** And the production of lactate [10]?
**A.** Its production of lactate is “reduced production of lactate”.

Source: patent publication US11738042B2, “Compositions and methods for promoting bone regeneration” (The Penn State Research Foundation, priority 2018, dated 2023)
